Measured values from US20140161786A1, “Therapeutic compositions and related methods” (priority 2012, published 2014).
Where a SMILES comes first, the peptide text is derived from it.

What was measured:
beta chain of insulin = molecular target: T1, beta chain of insulin (Homo sapiens, UniProt P01308); experiment: Inhibition of DTT induced aggregation of the beta chain of insulin (molecular chaperone function); assay type: biochemical; conditions: for molecular chaperone function (inhibition of insulin aggregation): pH 4 and pH 7.4; for inhibition of insulin aggregation: pH 7.4 and pH 5; for inhibition of insulin aggregation, L- versus D-amino acids: FIG. 6b/6c
T1 construct: DTT induced aggregation of the beta chain of insulin
Method: The capacity of the proteins and peptides to inhibit DTT induced aggregation of the beta chain of insulin was assayed using procedures described previously by several authors. See, for example, Hong, D. P. & Fink, A. L. Independent heterologous fibrillation of insulin and its B-chain peptide. Biochemistry 44, 16701-16709, doi:10.1021/bi051658y (2005). Also see, Hong, D. P., Ahmad, A. & Fink, A. L. Fibrillation of human insulin A and B chains. Biochemistry 45, 9342-9353, doi:10.1021/bi0604936 (2006). The aggregation was measured by the increase in absorption at 360 nm as a function of time over twenty minutes.
To determine whether the ThT staining observed in Experiment 4 (above) correlated with molecular chaperone function, each of the peptides was assayed for its ability to inhibit insulin aggregation. The effect of ThT on insulin aggregation was measured as a control. […] […] See, Nielsen, L. et al. Effect of environmental factors on the kinetics of insulin fibril formation: elucidation of the molecular mechanism. Biochemistry 40, 6036-6046, doi:bi002555c [pii] (2001).

EAE mice = experiment: EAE mouse model, reduction of paralytic symptoms; assay type: in vivo
[1] = Amyloid fibril formation by thioflavin T (ThT) fluorescence; assay type: physicochemical; conditions: for pH dependent amyloid fibril formation (ThT staining): buffers pH 3 to pH 10, 37° C., fluorescence at 485 nm; for amyloid fibril formation (ThT staining), L- versus D-amino acids: 100 mM MES pH 7.4, 37° C.
Method: The relative amount of amyloid present in each solution was measured by combining solutions of the hexamers (200 mg 50 ml) dissolved in 100 mM MES pH 7.4 and 50 ml of a 1M buffer solution at the appropriate pH (glycine, pH 3; acetate, pH 4; citrate, pH 5; MES, pH 6; Tris, pH 7; Tris, pH 8; glycine, pH 9; bicarbonate, pH 10) and incubated at 37° C. ThT (10 ml of 10 mM solution) was added and the resultant emission fluorescence at 485 nm for each sample after excitation at 440 nm was measured using a SpectraMax 190 fluorescent microtiter plate reader.
The ability of each hexamer listed in Table 1 to form amyloid fibrils in aqueous buffers was examined. Each of the hexamers (200 mg 50 ml) was added to 100 ml of 100 mM MES pH 7.4 and combined with 50 ml of a 1M buffer solution at the appropriate pH (glycine, pH 3; acetate, pH 4; citrate, pH 5; MES, pH 6; Tris, pH 7; Tris, pH 8; glycine, pH 9; bicarbonate, pH 10) and incubated at 37° C. ThT (10 ml of 10 mM solution) was added and the resultant fluorescence at 485 nm from excitation at 440 nm was measured using a fluorescent plate reader. The peptides can be segregated into sets A-E: an anionic set forming fibrils at pH 3, pH 4, and pH 5 (A), a cationic group forming fibrils only at pH 10 (B), three cationic sequences that form amyloid fibrils at all pHs measured (C), a nonionizable set of sequences weakly binding ThT at all pHs (D), and a hydrophobic set of sequences that bind ThT at all pHs tested (E). Only a fraction of the peptides formed amyloid fibrils when dissolved in PBS pH 7.4, as measured by staining with thioflavin T (ThT). Their differential propensity to form amyloid fibrils was used to help segregate them into functional sets (Table 1).
With respect the experimental results depicted in FIG. 6: A) L- and D-tau 623-628 and L- and D-Aβ 37-42 (200 μg/50 μl) were each added to 100 μl of 100 mM MES pH 7.4 and incubated at 37° C. ThT (10 μl of 10 μM solution) was added and the resultant fluorescence at 485 nm from excitation at 440 nm was measured using a fluorescent plate reader. The levels of ThT were similar in both sets of hexapeptides. […] D) Groups of ten mice were injected daily intraperitoneally for 10 days with 1 μg of L-tau or D-tau hexapeptides beginning at onset of hindlimb weakness. PBS was injected in littermates as control. Bar represents the duration of the treatment. Values in graph represent mean+/−S.E.M. *p<0.05 for L-tau and ̂p<0.05 for D-tau by Mann-Whitney U test.

[2] = tested on: plasma cytokine levels (IL-6, IL-2, TGF-β, IL-17); experiment: Plasma cytokine levels in EAE mice (multiplex-bead-analysis of 26 cytokines); assay type: in vivo; conditions: 1 μg of Tau 623-628 or 10 μg of HspB1 daily for two days, bled 12 hours later
Method: EAE was induced by procedures previously described. See, Steinman, L. & Zamvil, S. S. How to successfully apply animal studies in experimental allergic encephalomyelitis to research on multiple sclerosis. Ann Neurol 60, 12-21, doi:10.1002/ana.20913 (2006). […] Sera from EAE mice were collected following two days of treatment with 10 μg HspB1 protein, 1 μg tau 623-628 (VQIVYK)(SEQ ID NO: 123), or PBS. Twenty-six cytokines were analyzed by multiplex-bead-analysis.
To determine whether a hexamer modulated the plasma cytokine levels equivalent to an intact small heat shock protein, groups of five mice were treated after the onset of hindlimb weakness with daily injections of either 1 μg of Tau 623-628 or 10 μg of HspB1 for two days and bled 12 hours later.

[3] = mice, 1 μg peptide injected daily from onset of hindlimb weakness, PBS control

T1 sequence (P01308 25-54 limits assumed): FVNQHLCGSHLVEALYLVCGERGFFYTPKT

Cc1ccc2c(c1)sc(-c1ccc(N(C)C)cc1)[n+]2C.[Cl-] [ThT, thioflavin T, reference compound]
effect on the rate of insulin aggregation (control) (beta chain of insulin; 10 mM ThT): Neither the addition of 10 mM ThT nor ThT bound to Tau 623-628 affected the rate of insulin aggregation

SSTNVG [amylin 28-33]
reduction of the paralytic symptoms of EAE (EAE mice; [3]): therapeutic

amyloid beta A4 16-21: lysine-containing hexamer of amyloid beta A4 residues 16-21 (KLVFFA; Amyloid-beta protein 42; UniProt P05067 687-692, looked up, fragment)
pH dependent amyloid fibril formation (ThT staining) [1]: formed amyloid fibrils in buffers from pH 3-10

GYVIIK [serum amyloid P 213-218]
pH dependent amyloid fibril formation (ThT staining) [1]: formed amyloid fibrils in buffers from pH 3-10
reduction of the paralytic symptoms of EAE (EAE mice; [3]): therapeutic

MVGGVV (Ac-MVGGVV-NH2) [A beta A4 35-40, Ac MVGGVV CONH2 in b76]
amyloid fibril formation (ThT staining), L- versus D-amino acids [1]: equivalent, within error
reduction of the paralytic symptoms of EAE (EAE mice; mice, 1 μg peptide daily, administered in 50% DMSO): therapeutic

insulin B chain 11-16: hexamer of insulin B chain residues 11-16, acidic residue, sequence only in Table 1 image
pH dependent amyloid fibril formation (ThT staining) [1]: effectively formed amyloid fibrils only in a range of pH 3 to pH 5
reduction of the paralytic symptoms of EAE (EAE mice; [3]): did not statistically significantly reduce the symptoms of EAE
molecular chaperone function (inhibition of insulin aggregation) (beta chain of insulin): molecular chaperones at pH 4, but not at pH 7.4

L-Aβ 37-42: L-amino acid hexapeptide of FIG. 6A; b76 calls it A beta 35-40 (Ac MVGGVV CONH2) (Ac-MVGGVV-NH2; UniProt P05067 706-711, looked up, fragment)
amyloid fibril formation (ThT staining), L- versus D-amino acids [1]: similar

LKVKVL [HspB5 89-94, hexamer of HspB5 residues 89-94]
pH dependent amyloid fibril formation (ThT staining) [1]: bound ThT only at pH 10
reduction of the paralytic symptoms of EAE (EAE mice; [3]): effectively reduced the paralytic symptoms of EAE

CC(=O)N[C@@H](CO)C(=O)N[C@@H](CC(N)=O)C(=O)N[C@@H](CCC(N)=O)C(=O)N[C@@H](CC(N)=O)C(=O)N[C@@H](CC(N)=O)C(=O)N[C@@H](Cc1ccccc1)C(N)=O [prion 148-153, SNQNNF] (Ac-SNQNNF-NH2)
reduction of the paralytic symptoms of EAE (EAE mice; mouse, in vivo): therapeutic

SVNDLV [HspB5 76-81, hexamer of HspB5 residues 76-81]
pH dependent amyloid fibril formation (ThT staining) [1]: effectively formed amyloid fibrils only in a range of pH 3 to pH 5
reduction of the paralytic symptoms of EAE (EAE mice; [3]): effectively reduced the paralytic symptoms of EAE
molecular chaperone function (inhibition of insulin aggregation) (beta chain of insulin): molecular chaperone only at pH4 and not in more basic solutions
inhibition of insulin aggregation (beta chain of insulin): only effective at pH 5

NKGAII [A beta A4 27-32]
pH dependent amyloid fibril formation (ThT staining) [1]: bound ThT only at pH 10
reduction of the paralytic symptoms of EAE (EAE mice; [3]): therapeutic

VQIVYK [Tau 623-628]
IL-2 level in serum [2]: smaller reductions
IL-6 level in serum [2]: dramatic reduction
IL-17 level in serum [2]: smaller reductions
TGF-β level in serum [2]: smaller reductions
amyloid fibril formation (ThT staining), L- versus D-amino acids [1]: equivalent, within error
amyloid fibril formation (ThT staining), L- versus D-amino acids ([1]; listed as L-tau 623-628): similar
pH dependent amyloid fibril formation (ThT staining) [1]: formed amyloid fibrils in buffers from pH 3-10
reduction of the paralytic symptoms of EAE (EAE mice; [3]): effectively reduced the paralytic symptoms of EAE
inhibition of insulin aggregation, L- versus D-amino acids (beta chain of insulin): inhibited insulin aggregation with very similar IC50 values
inhibition of insulin aggregation, L- versus D-amino acids (beta chain of insulin; listed as L-tau): inhibit insulin aggregation in a dose dependent manner with similar IC50 concentrations
molecular chaperone function (inhibition of insulin aggregation) (beta chain of insulin): inhibited insulin aggregation at pH 4 and pH 7.4
inhibition of insulin aggregation (beta chain of insulin): potent inhibitor at both pH 7.4 and pH 5
IC50, inhibition of insulin aggregation (beta chain of insulin; titration, Panel C of FIG. 4): approximately 20 mg

insulin A chain 12-17: hexamer of insulin A chain residues 12-17, acidic residue, sequence only in Table 1 image
pH dependent amyloid fibril formation (ThT staining) [1]: effectively formed amyloid fibrils only in a range of pH 3 to pH 5
molecular chaperone function (inhibition of insulin aggregation) (beta chain of insulin): molecular chaperones at pH 4, but not at pH 7.4

Ac VQIVYK CONH2 [D-tau 623-628]
amyloid fibril formation (ThT staining), L- versus D-amino acids [1]: similar
inhibition of insulin aggregation, L- versus D-amino acids (beta chain of insulin): inhibit insulin aggregation in a dose dependent manner with similar IC50 concentrations

HspB1: intact small heat shock protein
IL-2 level in serum [2]: smaller reductions
IL-6 level in serum [2]: dramatic reduction
IL-17 level in serum [2]: smaller reductions
TGF-β level in serum [2]: smaller reductions
